Results reported in ChEMBL document CHEMBL5214895, “3-Hydroxy-propanamidines, a New Class of Orally Active Antimalarials Targeting Plasmodium falciparum” (J Med Chem, 2021).
Activity calls are given as the source filed them. No cut-off for these calls is given here.

How the values were obtained:
[1] = Cytotoxicity against human HepG2 cells assessed as inhibition of cell growth incubated for 24 hrs by neutral red dye based analysis; format: toxicity
[2] = Cmax in mouse infected with Plasmodium berghei at 30 mg/kg, po administered as single dose and measured for 24 hrs by LC-MS/MS analysis; format: ADME, organism-based; parameters: dose 30 mg/kg, time 24 hrs, route po; details: in vivo
[3] = Half life in mouse infected with Plasmodium berghei at 3 mg/kg, po administered as single dose and measured for 24 hrs by LC-MS/MS analysis; format: ADME, organism-based; details: in vivo
[4] = system: Plasmodium berghei; experiment: Antimalarial activity against Plasmodium berghei infected in mouse assessed as reduction in parasitemia in blood at 30 mg/kg, po administered for 4 times starting from 4 to 72 hrs and measured after 96 hrs post infection (reference value: 0%); format: functional; parameters: scale not given: the % may be the effect or the level left
[5] = system: Plasmodium falciparum; experiment: Antiplasmodial activity against sorbitol-synchronized early ring stage plasmodium falciparum NF54 trophozoites assessed as inhibition of parasite growth incubated for 72 hrs by SYBR green-based parasite susceptibility assay; format: functional, organism-based; details: NF54, 72 h
[6] = system: Plasmodium berghei; experiment: Antimalarial activity against Plasmodium berghei infected in mouse assessed as mean survival days at 50 mg/kg, po administered for 4 times starting from 4 to 72 hrs and monitered for 30 days (reference value: 4 days); format: functional; details: time 30 day
[7] = system: Plasmodium berghei; experiment: Antimalarial activity against Plasmodium berghei infected in mouse assessed as reduction in parasitemia in blood at 3 mg/kg, po administered for 4 times starting from 4 to 72 hrs and measured after 96 hrs post infection (reference value: 0 %); format: functional; parameters: scale not given: the % may be the effect or the level left
[8] = AUC(0 to t) in mouse infected with Plasmodium berghei at 3 mg/kg, po administered as single dose and measured for 24 hrs by LC-MS/MS analysis; format: ADME, organism-based; parameters: dose 3 mg/kg, time 24 hrs, route po; details: in vivo
[9] = system: Plasmodium berghei; experiment: Antimalarial activity against Plasmodium berghei infected in mouse assessed as reduction in parasitemia in blood at 10 mg/kg, po administered for 4 times starting from 4 to 72 hrs and measured after 96 hrs post infection (reference value: 0%); format: functional; parameters: scale not given: the % may be the effect or the level left
[10] = system: Plasmodium berghei; experiment: Antimalarial activity against Plasmodium berghei infected in mouse assessed as mean survival days at 30 mg/kg, po administered for 4 times starting from 4 to 72 hrs and monitered for 30 days (reference value: 4 days); format: functional; details: time 30 day
[11] = Chemical stability of compound in Tween20/ethanol/phosphate buffer at pH 2 assessed as drug degradation measured over 24 hrs; format: physicochemical; details: read-out: Drug degradation
[12] = system: Plasmodium falciparum; experiment: Antiplasmodial activity against multidrug resistant asexual blood stage Plasmodium falciparum Dd2-B2 assessed as inhibition of parasite growth incubated for 72 hrs by SYBR green-based assay; format: functional, organism-based; details: Dd2-B2, 72 h
[13] = Tmax in mouse infected with Plasmodium berghei at 10 mg/kg, po administered as single dose and measured for 24 hrs by LC-MS/MS analysis; format: ADME, organism-based; details: in vivo
[14] = system: Plasmodium falciparum; experiment: Inhibition of hemozoin formation in sorbitol-synchronized early ring stage plasmodium falciparum NF54 trophozoites assessed as reduction in hemozoin level at 2.5 times IC50 incubated for 28 hrs by flow cytometry analysis; format: functional
[15] = Observed AUC(0 to infinity) in mouse infected with Plasmodium berghei at 3 mg/kg, po administered as single dose and measured for 24 hrs by LC-MS/MS analysis; format: ADME, organism-based; parameters: dose 3 mg/kg, time 24 hrs, route po; details: in vivo
[16] = Cytotoxicity against human HeLa cells assessed as inhibition of cell growth incubated for 24 hrs by neutral red dye based analysis; format: toxicity
[17] = system: Plasmodium falciparum; experiment: Induction of drug resistance in Plasmodium falciparum Dd2 clone FL3-C3 assessed as fold increase in IC50 incubated for 72 hrs by SYBR green-based assay; format: functional
[18] = AUC(0 to t) in mouse infected with Plasmodium berghei at 10 mg/kg, po administered as single dose and measured for 24 hrs by LC-MS/MS analysis; format: ADME, organism-based; parameters: time 24 hrs, dose 10 mg/kg, route po; details: in vivo
[19] = Cytotoxicity against HEK293 cells assessed as inhibition of cell growth incubated for 24 hrs by neutral red dye based analysis; format: toxicity; details: human
[20] = system: Plasmodium falciparum; experiment: Antiplasmodial activity against chloroquine-sensitive asexual blood stage Plasmodium falciparum 3D7 assessed as inhibition of parasite growth incubated for […] by HRP2-ELISA; format: functional, organism-based
[21] = Elimination half life in mouse infected with Plasmodium berghei at 3 mg/kg, po administered as single dose and measured for 24 hrs by LC-MS/MS analysis; format: ADME, organism-based; details: in vivo, read-out: beta t1/2 (converted)
[22] = Elimination half life in mouse infected with Plasmodium berghei at 30 mg/kg, po administered as single dose and measured for 24 hrs by LC-MS/MS analysis; format: ADME, organism-based; details: in vivo, read-out: beta t1/2 (converted)
[23] = Elimination half life in mouse infected with Plasmodium berghei at 10 mg/kg, po administered as single dose and measured for 24 hrs by LC-MS/MS analysis; format: ADME, organism-based; details: in vivo, read-out: beta t1/2 (converted)
[24] = Metabolic stability in human liver microsomes assessed as parent compound remaining at 2 uM incubated for 40 mins in presence of NADPH by LC-MS/MS analysis; format: ADME, Microsome; details: read-out: Stability
[25] = Metabolic stability in human liver microsomes assessed as intrinsic clearance; format: ADME, Microsome
[26] = system: Plasmodium falciparum; experiment: Antiplasmodial activity against hyper mutating Plasmodium falciparum Dd2 harboring proofreading-deficient DNA polymerase delta assessed as inhibition of parasite growth incubated for 72 hrs by SYBR green-based assay; format: functional, organism-based; details: Dd2, 72 h
[27] = Selectivity index, ratio of IC50 for cytotoxicity against human HepG2 cells to IC50 for antiplasmodial activity against chloroquine-sensitive asexual blood stage Plasmodium falciparum 3D7; format: toxicity, cell-based; details: read-out: Ratio IC50
[28] = Cmax in mouse infected with Plasmodium berghei at 10 mg/kg, po administered as single dose and measured for 24 hrs by LC-MS/MS analysis; format: ADME, organism-based; parameters: dose 10 mg/kg, time 24 hrs, route po; details: in vivo
[29] = Observed AUC(0 to infinity) in mouse infected with Plasmodium berghei at 10 mg/kg, po administered as single dose and measured for 24 hrs by LC-MS/MS analysis; format: ADME, organism-based; parameters: dose 10 mg/kg, time 24 hrs, route po; details: in vivo
[30] = Half life in mouse infected with Plasmodium berghei at 30 mg/kg, po administered as single dose and measured for 24 hrs by LC-MS/MS analysis; format: ADME, organism-based; details: in vivo
[31] = system: Plasmodium berghei; experiment: Antimalarial activity against Plasmodium berghei infected in mouse assessed as reduction in parasitemia in blood at 50 mg/kg, po administered for 4 times starting from 4 to 72 hrs and measured after 96 hrs post infection (reference value: 0%); format: functional; parameters: scale not given: the % may be the effect or the level left
[32] = system: Plasmodium falciparum; experiment: Inhibition of hemozoin formation in sorbitol-synchronized early ring stage plasmodium falciparum NF54 trophozoites assessed as increase in free heme level at 2.5 times IC50 incubated for 28 hrs by flow cytometry analysis; format: functional
[33] = Half life in mouse infected with Plasmodium berghei at 10 mg/kg, po administered as single dose and measured for 24 hrs by LC-MS/MS analysis; format: ADME, organism-based; details: in vivo
[34] = Cmax in mouse infected with Plasmodium berghei at 3 mg/kg, po administered as single dose and measured for 24 hrs by LC-MS/MS analysis; format: ADME, organism-based; parameters: time 24 hrs, dose 3 mg/kg, route po; details: in vivo
[35] = system: Plasmodium falciparum; experiment: Antiplasmodial activity against multidrug resistant asexual blood stage Plasmodium falciparum Dd2 assessed as inhibition of parasite growth incubated for […] by HRP2-ELISA; format: functional, organism-based
[36] = Observed AUC(0 to infinity) in mouse infected with Plasmodium berghei at 30 mg/kg, po administered as single dose and measured for 24 hrs by LC-MS/MS analysis; format: ADME, organism-based; parameters: dose 30 mg/kg, time 24 hrs, route po; details: in vivo
[37] = Tmax in mouse infected with Plasmodium berghei at 30 mg/kg, po administered as single dose and measured for 24 hrs by LC-MS/MS analysis; format: ADME, organism-based; details: in vivo
[38] = AUC(0 to t) in mouse infected with Plasmodium berghei at 30 mg/kg, po administered as single dose and measured for 24 hrs by LC-MS/MS analysis; format: ADME, organism-based; parameters: dose 30 mg/kg, time 24 hrs, route po; details: in vivo
[39] = Tmax in mouse infected with Plasmodium berghei at 3 mg/kg, po administered as single dose and measured for 24 hrs by LC-MS/MS analysis; format: ADME, organism-based; details: in vivo
[40] = molecular target: Voltage-gated inwardly rectifying potassium channel KCNH2 (Homo sapiens, UniProt Q12809); experiment: Inhibition of hERG by fluorescence polarization assay; format: toxicity
[41] = system: Plasmodium falciparum; experiment: Induction of drug resistance in Plasmodium falciparum Dd2 clone FL2-C4 assessed as fold increase in IC50 incubated for 72 hrs by SYBR green-based assay; format: functional
[42] = Chemical stability of compound in Tween20/ethanol/phosphate buffer at pH 7.5 assessed as drug degradation measured over 24 hrs; format: physicochemical; details: read-out: Drug degradation

Sequence of Voltage-gated inwardly rectifying potassium channel KCNH2 (Q12809 whole entry): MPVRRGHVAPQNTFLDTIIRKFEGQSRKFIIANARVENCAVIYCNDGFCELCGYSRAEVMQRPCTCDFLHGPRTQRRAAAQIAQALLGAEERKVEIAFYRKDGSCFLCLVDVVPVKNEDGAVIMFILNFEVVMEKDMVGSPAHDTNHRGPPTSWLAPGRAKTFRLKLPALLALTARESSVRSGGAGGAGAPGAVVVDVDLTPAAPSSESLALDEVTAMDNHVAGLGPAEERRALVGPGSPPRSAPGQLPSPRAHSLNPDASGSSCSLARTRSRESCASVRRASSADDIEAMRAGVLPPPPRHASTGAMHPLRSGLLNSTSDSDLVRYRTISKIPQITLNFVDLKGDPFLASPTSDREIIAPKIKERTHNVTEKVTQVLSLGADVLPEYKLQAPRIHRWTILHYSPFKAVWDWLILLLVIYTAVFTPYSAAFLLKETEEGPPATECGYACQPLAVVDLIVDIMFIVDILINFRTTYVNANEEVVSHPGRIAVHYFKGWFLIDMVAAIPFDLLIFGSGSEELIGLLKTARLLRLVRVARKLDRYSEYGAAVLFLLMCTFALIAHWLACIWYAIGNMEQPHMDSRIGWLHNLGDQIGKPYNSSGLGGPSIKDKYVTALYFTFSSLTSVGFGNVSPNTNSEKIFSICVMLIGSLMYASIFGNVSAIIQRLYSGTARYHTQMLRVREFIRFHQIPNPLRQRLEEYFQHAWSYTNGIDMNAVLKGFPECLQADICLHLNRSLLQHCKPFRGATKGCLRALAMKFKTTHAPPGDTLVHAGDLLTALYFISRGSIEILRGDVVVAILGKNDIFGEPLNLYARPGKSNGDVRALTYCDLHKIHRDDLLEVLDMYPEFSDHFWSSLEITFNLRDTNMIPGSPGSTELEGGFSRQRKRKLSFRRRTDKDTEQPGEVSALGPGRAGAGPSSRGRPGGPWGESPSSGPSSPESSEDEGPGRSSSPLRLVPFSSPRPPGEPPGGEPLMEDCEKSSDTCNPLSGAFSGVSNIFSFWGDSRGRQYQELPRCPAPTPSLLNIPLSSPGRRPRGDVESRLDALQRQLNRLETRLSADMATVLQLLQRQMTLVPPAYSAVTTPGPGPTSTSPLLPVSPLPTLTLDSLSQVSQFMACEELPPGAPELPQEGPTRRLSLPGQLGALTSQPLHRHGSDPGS

COc1ccc(/N=C(\N)CC(O)c2cc3c(F)cc(F)cc3c3cc(C(F)(F)F)ccc23)cc1.Cl (configuration not stated)
IC50 at 24 h [1]: 4300 nM
Cmax [2]: 57.3 ng/mL
t1/2 [3]: 313 min
Activity [4]: 99.9%
IC50 [5]: 8.4 nM
MSD [6]: 27 days
Activity [7]: 0%
AUCt [8]: 20.4 ng·h/mL
Activity [9]: 99.9%
MSD [10]: 17 days
degraded at 24 h [11]: 0.1%
IC50 [12]: 15.3 nM
Tmax [13]: 60 min
inhibition [14]: Active
AUC [15]: 21.5 ng·h/mL
IC50 at 24 h [16]: 46100 nM
fold change (FC) [17]: 3
AUCt [18]: 192.1 ng·h/mL
IC50 at 24 h [19]: 36800 nM
IC50 [20]: 5 nM
half-life [21]: 7.58 min
half-life [22]: 4.18 min
half-life [23]: 7.91 min
remaining at 40 min, 2 µM [24]: 86%
CLH [25]: 9 µL/min/mg
IC50 [26]: 15 nM
selectivity ratio [27]: 860
Cmax [28]: 23 ng/mL
AUC [29]: 199.7 ng·h/mL
t1/2 [30]: 421 min
Activity [31]: 99.8%
inhibition [32]: Active
t1/2 [33]: 248 min
Cmax [34]: 3.3 ng/mL
IC50 [35]: 12 nM
AUC [36]: 848.1 ng·h/mL
Tmax [37]: 60 min
AUCt [38]: 783.1 ng·h/mL
Tmax [39]: 60 min
IC50 [40]: 190 nM
fold change (FC) [41]: 3
degraded at 24 h [42]: 1%
